Target: human adenosine A2a receptor (Homo sapiens, UniProt P29274)
Assay: Adenosine A2a receptor whole cell cyclic AMP assay
Conditions: for IC50: HEK293 cells stably expressing human A2a, 1 hour compound treatment; for inhibition at 10 µM: HEK293, 1 h, read-out: A2a @ 100 μM Adenosine (A2a cAMP IC50)
[1] = A2a @ 1 μM Adenosine (A2a cAMP IC50), 1 μM adenosine
[2] = A2a @ 100 μM Adenosine (A2a cAMP IC50), 100 μM adenosine

human adenosine A2a receptor, sequence (P29274 whole entry): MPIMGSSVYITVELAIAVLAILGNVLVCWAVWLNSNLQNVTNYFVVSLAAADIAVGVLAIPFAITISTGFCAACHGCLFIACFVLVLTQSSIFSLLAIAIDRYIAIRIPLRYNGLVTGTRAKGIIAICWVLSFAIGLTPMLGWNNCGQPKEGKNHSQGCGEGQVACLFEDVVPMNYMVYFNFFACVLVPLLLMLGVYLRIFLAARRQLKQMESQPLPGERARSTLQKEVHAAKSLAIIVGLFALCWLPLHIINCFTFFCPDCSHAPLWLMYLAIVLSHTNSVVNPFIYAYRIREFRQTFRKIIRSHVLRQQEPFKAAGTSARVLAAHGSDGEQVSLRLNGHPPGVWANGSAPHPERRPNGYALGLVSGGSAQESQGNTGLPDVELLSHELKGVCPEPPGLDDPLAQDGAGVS

Row | Compound | IC50 [1] [nM] | inhibition at 10 µM [%] | IC50 [2] [nM]
1 | Cc1cc(-c2c(-c3ccc(F)cc3)nc(N)c3nnnn23)cc(Cl)n1 [1-1, 5-(2-chloro-6-methylpyridin-4-yl)-6-(4-fluorophenyl)tetrazolo[1,5-a]pyrazin-8-amine] | 100 to 1000 | – | –
2 | Cc1cc(-c2nc(N)c3nnnn3c2-c2ccc(F)cc2)cc(Cl)n1 [1-2, 6-(2-chloro-6-methylpyridin-4-yl)-5-(4-fluorophenyl)tetrazolo[1,5-a]pyrazin-8-amine] | > 1000 | – | –
3 | Cc1cc(Cl)cc(-c2c(-c3ccc(F)cc3)nc(N)c3nnnn23)c1 [1-3, 5-(3-chloro-5-methylphenyl)-6-(4-fluorophenyl)tetrazolo[1,5-a]pyrazin-8-amine] | > 1000 | – | –
4 | Cn1cc(-c2c(-c3ccc(F)cc3)nc(N)c3nnnn23)ccc1=O [1-4, 5-(8-amino-6-(4-fluorophenyl)tetrazolo[1,5-a]pyrazin-5-yl)-1-methylpyridin-2(1H)-one] | > 1000 | – | –
5 | COc1cc(-c2c(-c3ccc(F)cc3)nc(N)c3nnnn23)cc2cccnc12 [1-5, 6-(4-fluorophenyl)-5-(8-methoxyquinolin-6-yl)tetrazolo[1,5-a]pyrazin-8-amine] | 100 to 1000 | – | –
6 | Nc1nc(-c2ccc(F)cc2)c(-c2ccc3ncnn3c2)n2nnnc12 [1-8, 5-([1,2,4]triazolo[1,5-a]pyridin-6-yl)-6-(4-fluorophenyl)tetrazolo[1,5-a]pyrazin-8-amine] | > 1000 | – | –
7 | Nc1nc(-c2ccc(F)cc2)c(-c2ccc3nccn3c2)n2nnnc12 [1-9, 6-(4-fluorophenyl)-5-(imidazo[1,2-a]pyridin-6-yl)tetrazolo[1,5-a]pyrazin-8-amine] | 100 to 1000 | < 25 | –
8 | Nc1nc(-c2ccc(F)cc2)c(-c2ccc3ncoc3c2)n2nnnc12 [1-10, 5-(benzo[d]oxazol-6-yl)-6-(4-fluorophenyl)tetrazolo[1,5-a]pyrazin-8-amine] | 100 to 1000 | – | –
9 | Nc1nc(-c2ccc(F)cc2)c(-c2ccc3ncccc3c2)n2nnnc12 [1-11, 6-(4-fluorophenyl)-5-(quinolin-6-yl)tetrazolo[1,5-a]pyrazin-8-amine] | < 100 | < 25 | –
10 | Nc1nc(-c2ccc(F)cc2)c(-c2ccc3ncsc3c2)n2nnnc12 [1-12, 5-(benzo[d]thiazol-6-yl)-6-(4-fluorophenyl)tetrazolo[1,5-a]pyrazin-8-amine] | 100 to 1000 | < 25 | –
11 | Nc1nc(-c2ccc(F)cc2)c(-c2cc(F)c3nccn3c2)n2nnnc12 [1-14, 5-(8-fluoroimidazo[1,2-a]pyridin-6-yl)-6-(4-fluorophenyl)tetrazolo[1,5-a]pyrazin-8-amine] | 100 to 1000 | < 25 | –
12 | Nc1nc(-c2ccc(F)cc2)c(-c2ccc3ncncc3c2)n2nnnc12 [1-15, 6-(4-fluorophenyl)-5-(quinazolin-6-yl)tetrazolo[1,5-a]pyrazin-8-amine] | 100 to 1000 | < 25 | –
13 | Nc1nc(-c2ccc(F)cc2)c(-c2cc3cnccc3s2)n2nnnc12 [1-16, 6-(4-fluorophenyl)-5-(thieno[3,2-c]pyridin-2-yl)tetrazolo[1,5-a]pyrazin-8-amine] | 100 to 1000 | < 25 | –
14 | Nc1nc(-c2ccc(F)cc2)c(-c2cc(Cl)c3nccn3c2)n2nnnc12 [1-17, 5-(8-chloroimidazo[1,2-a]pyridin-6-yl)-6-(4-fluorophenyl)tetrazolo[1,5-a]pyrazin-8-amine] | 100 to 1000 | < 25 | –
15 | Cc1nc2ccc(-c3c(-c4ccc(F)cc4)nc(N)c4nnnn34)cn2n1 [1-18, 6-(4-fluorophenyl)-5-(2-methyl-[1,2,4]triazolo[1,5-a]pyridin-6-yl)tetrazolo[1,5-a]pyrazin-8-amine] | > 1000 | < 25 | –
16 | Nc1nc(-c2ccc(F)cc2)c(-c2cc(F)c3ncccc3c2)n2nnnc12 [1-19, 6-(4-fluorophenyl)-5-(8-fluoroquinolin-6-yl)tetrazolo[1,5-a]pyrazin-8-amine] | 100 to 1000 | – | > 1000
17 | Cc1cn2cc(-c3c(-c4ccc(F)cc4)nc(N)c4nnnn34)cc(F)c2n1 [1-21, 5-(8-fluoro-2-methylimidazo[1,2-a]pyridin-6-yl)-6-(4-fluorophenyl)tetrazolo[1,5-a]pyrazin-8-amine] | > 1000 | < 25 | –
18 | N#Cc1cnc2ccc(-c3c(-c4ccc(F)cc4)nc(N)c4nnnn34)cn12 [1-22, 6-(8-amino-6-(4-fluorophenyl)tetrazolo[1,5-a]pyrazin-5-yl)imidazo[1,2-a]pyridine-3-carbonitrile] | < 100 | < 25 | –
19 | Nc1nc(-c2ccc(F)cc2)c(-c2ccc3ncc(Cl)n3c2)n2nnnc12 [1-23, 5-(3-chloroimidazo[1,2-a]pyridin-6-yl)-6-(4-fluorophenyl)tetrazolo[1,5-a]pyrazin-8-amine] | < 100 | – | –
20 | Cc1cnc2c(Cl)cc(-c3c(-c4ccc(F)cc4)nc(N)c4nnnn34)cn12 [1-24, 5-(8-chloro-3-methylimidazo[1,2-a]pyridin-6-yl)-6-(4-fluorophenyl)tetrazolo[1,5-a]pyrazin-8-amine] | 100 to 1000 | – | 100 to 1000
21 | Cc1cc(-c2c(-c3ccccc3F)nc(N)c3nnnn23)cc(Cl)n1 [1-26, 5-(2-chloro-6-methylpyridin-4-yl)-6-(2-fluorophenyl)tetrazolo[1,5-a]pyrazin-8-amine] | 100 to 1000 | – | –
22 | Cc1cc(-c2c(-c3cccc(F)c3)nc(N)c3nnnn23)cc(Cl)n1 [1-27, 5-(2-chloro-6-methylpyridin-4-yl)-6-(3-fluorophenyl)tetrazolo[1,5-a]pyrazin-8-amine] | 100 to 1000 | – | –
23 | Cc1cc(-c2c(-c3ccc(F)cc3)nc(N)n3nnnc23)cc(C)n1 [1-28, 8-(2,6-dimethylpyridin-4-yl)-7-(4-fluorophenyl)tetrazolo[1,5-c]pyrimidin-5-amine] | < 100 | < 25 | –
24 | Cn1cc(-c2c(-c3ccc(F)cc3)nc(N)n3nnnc23)ccc1=O [1-29, 5-(5-amino-7-(4-fluorophenyl)tetrazolo[1,5-c]pyrimidin-8-yl)-1-methylpyridin-2(1H)-one] | 100 to 1000 | – | –
25 | Cn1cnc2ccc(-c3c(-c4ccc(F)cc4)nc(N)n4nnnc34)cc21 [1-30, 7-(4-fluorophenyl)-8-(1-methyl-1H-benzo[d]imidazol-6-yl)tetrazolo[1,5-c]pyrimidin-5-amine] | < 100 | – | –
26 | Cc1ccnc2ccc(-c3c(-c4cccc(C#N)c4)nc(N)c4nnnn34)cc12 [1-31, 3-(8-amino-5-(4-methylquinolin-6-yl)tetrazolo[1,5-a]pyrazin-6-yl)benzonitrile] | 100 to 1000 | – | –
27 | Cc1cc(-c2c(-c3ccccc3)nc(N)c3nnnn23)cc(Cl)n1 [1-32, 5-(2-chloro-6-methylpyridin-4-yl)-6-phenyltetrazolo[1,5-a]pyrazin-8-amine] | 100 to 1000 | – | –
28 | Cc1cc(-c2c(-c3ccc(F)cc3)nc(N)n3nnnc23)cc(Cl)n1 [1-33, 8-(2-chloro-6-methylpyridin-4-yl)-7-(4-fluorophenyl)tetrazolo[1,5-c]pyrimidin-5-amine] | 100 to 1000 | – | –
29 | Nc1nc(-c2ccc(F)cc2)c(-c2ccc3nccc(Cl)c3c2)c2nnnn12 [1-35, 8-(4-chloroquinolin-6-yl)-7-(4-fluorophenyl)tetrazolo[1,5-c]pyrimidin-5-amine] | < 100 | – | –
30 | Nc1nc(-c2ccc(F)cc2)c(-c2ccc3ncccc3c2)c2nnnn12 [1-37, 7-(4-fluorophenyl)-8-(quinolin-6-yl)tetrazolo[1,5-c]pyrimidin-5-amine] | 100 to 1000 | – | –
